Test results as given in ChEMBL document CHEMBL1201862, “PubChem BioAssay data set” (2004).
The source made the active and inactive calls.

Experiments:
[1] = target: T1, Zinc finger protein mex-5 (Caenorhabditis elegans, UniProt Q9XUB2); assay: MEX-5/TCR-2 RNA interaction inhibitors, dose response, biochemical, C. elegans, fluorescence polarization (AID 1960)
T1 sequence (Q9XUB2 whole entry): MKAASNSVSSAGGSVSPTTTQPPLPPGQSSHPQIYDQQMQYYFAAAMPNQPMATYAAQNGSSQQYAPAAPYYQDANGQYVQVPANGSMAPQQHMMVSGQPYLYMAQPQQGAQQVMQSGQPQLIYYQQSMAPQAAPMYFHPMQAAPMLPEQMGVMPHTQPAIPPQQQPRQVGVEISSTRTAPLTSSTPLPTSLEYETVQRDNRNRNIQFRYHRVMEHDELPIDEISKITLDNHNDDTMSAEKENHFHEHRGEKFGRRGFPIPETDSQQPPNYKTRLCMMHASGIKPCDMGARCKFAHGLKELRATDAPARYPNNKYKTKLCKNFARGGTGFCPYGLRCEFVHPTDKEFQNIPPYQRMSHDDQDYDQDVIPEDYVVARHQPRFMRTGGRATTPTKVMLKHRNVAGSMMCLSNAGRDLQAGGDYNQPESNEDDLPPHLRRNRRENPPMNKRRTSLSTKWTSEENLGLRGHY

[2] = target: T2, RNA-binding protein pos-1 (Caenorhabditis elegans, UniProt G5EF15); assay: inhibitors of POS-1/mex-3 RNA binding, dose response, biochemical, fluorescence polarization (AID 1964);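 note: purified POS-1 fused to maltose binding protein made in E. coli; potency of compounds blocking POS-1 binding to fluorescent RNA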
T2 sequence (G5EF15 whole entry): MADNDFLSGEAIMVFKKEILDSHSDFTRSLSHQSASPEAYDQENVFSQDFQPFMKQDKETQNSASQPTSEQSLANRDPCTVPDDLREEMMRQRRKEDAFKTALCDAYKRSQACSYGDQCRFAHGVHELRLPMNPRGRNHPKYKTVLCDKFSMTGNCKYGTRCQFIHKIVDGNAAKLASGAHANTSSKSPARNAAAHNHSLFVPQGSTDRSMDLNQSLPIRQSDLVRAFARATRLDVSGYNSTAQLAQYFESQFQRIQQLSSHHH

[3] = test system: Streptococcus sp. 'group A'; assay: growth inhibition of control SK(-) GAS strain, dose response, counter-screen for streptokinase expression inhibitor project, luminescence, kanamycin, BacTiterGlo, confirmation (AID 1900); assay type: functional, organism-based
Streptococcus = assay: Group A Streptococcus viability loss, dose response, counter-screen for streptokinase expression inhibitor project, luminescence, BacTiterGlo (AID 1915); assay type: functional, organism-based;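 note: potency for reduction of bacterial viability or growth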
[4] = target: T3, Rac GTPase-activating protein 1 (Homo sapiens, UniProt Q9H0H5); assay: MgcRacGAP GTPase-activating activity inhibitors, confirmation, biochemical, ADP Hunter fluorescence, primary and confirmatory (AID 624330); assay type: functional
T3 sequence (Q9H0H5 whole entry): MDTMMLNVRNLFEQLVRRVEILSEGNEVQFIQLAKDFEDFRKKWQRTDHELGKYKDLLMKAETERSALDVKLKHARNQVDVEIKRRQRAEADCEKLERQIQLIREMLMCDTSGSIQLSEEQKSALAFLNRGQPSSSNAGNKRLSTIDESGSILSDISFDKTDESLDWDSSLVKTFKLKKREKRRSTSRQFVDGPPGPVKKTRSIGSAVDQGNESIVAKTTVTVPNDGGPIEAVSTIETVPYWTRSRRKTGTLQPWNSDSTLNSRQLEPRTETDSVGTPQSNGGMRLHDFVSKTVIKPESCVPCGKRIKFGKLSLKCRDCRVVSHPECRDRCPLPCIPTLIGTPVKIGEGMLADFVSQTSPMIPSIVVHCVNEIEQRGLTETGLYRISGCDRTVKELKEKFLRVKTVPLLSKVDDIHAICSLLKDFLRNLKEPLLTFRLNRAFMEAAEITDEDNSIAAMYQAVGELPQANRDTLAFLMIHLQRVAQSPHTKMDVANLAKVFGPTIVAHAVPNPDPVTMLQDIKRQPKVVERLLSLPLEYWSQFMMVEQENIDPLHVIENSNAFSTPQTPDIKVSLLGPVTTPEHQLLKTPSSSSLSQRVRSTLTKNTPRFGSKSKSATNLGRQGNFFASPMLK

Protein RecA = target: T4, Protein RecA (Mycobacterium tuberculosis, UniProt P9WHJ3); assay: Fluorescence Cell-Free Homogeneous Dose Retest to Identify Inhibitors of RecA-Intein Splicing Activity. [Related pubchem assays (depositor defined):AID2097, AID2223, AID489010, AID492950]; assay type: functional
T4 sequence (P9WHJ3 whole entry): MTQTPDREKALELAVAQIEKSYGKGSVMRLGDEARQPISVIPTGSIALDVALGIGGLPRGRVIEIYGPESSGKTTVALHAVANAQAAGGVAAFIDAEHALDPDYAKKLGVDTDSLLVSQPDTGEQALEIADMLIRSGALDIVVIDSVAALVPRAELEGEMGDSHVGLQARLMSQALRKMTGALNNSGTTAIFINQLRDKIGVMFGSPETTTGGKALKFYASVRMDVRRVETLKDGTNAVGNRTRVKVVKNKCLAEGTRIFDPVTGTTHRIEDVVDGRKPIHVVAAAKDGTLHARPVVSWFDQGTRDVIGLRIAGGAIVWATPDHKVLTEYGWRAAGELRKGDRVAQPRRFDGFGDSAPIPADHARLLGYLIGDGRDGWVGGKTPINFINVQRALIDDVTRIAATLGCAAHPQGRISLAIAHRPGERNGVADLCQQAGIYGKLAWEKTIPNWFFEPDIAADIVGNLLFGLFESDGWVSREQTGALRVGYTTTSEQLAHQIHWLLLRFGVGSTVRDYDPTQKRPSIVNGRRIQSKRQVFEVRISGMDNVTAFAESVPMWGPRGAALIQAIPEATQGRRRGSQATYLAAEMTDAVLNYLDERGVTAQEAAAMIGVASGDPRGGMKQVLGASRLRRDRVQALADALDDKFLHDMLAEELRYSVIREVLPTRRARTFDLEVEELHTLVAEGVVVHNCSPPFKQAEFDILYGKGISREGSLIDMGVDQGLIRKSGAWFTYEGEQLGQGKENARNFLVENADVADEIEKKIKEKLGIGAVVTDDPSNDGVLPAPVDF

[5] = target: T5, Replicative DNA helicase DnaB (Mycobacterium tuberculosis, UniProt P9WMR3); assay: DnaB intein splicing inhibitors, dose response, biochemical, cell-free fluorescence (AID 449749); assay type: functional
T5 sequence (P9WMR3 whole entry): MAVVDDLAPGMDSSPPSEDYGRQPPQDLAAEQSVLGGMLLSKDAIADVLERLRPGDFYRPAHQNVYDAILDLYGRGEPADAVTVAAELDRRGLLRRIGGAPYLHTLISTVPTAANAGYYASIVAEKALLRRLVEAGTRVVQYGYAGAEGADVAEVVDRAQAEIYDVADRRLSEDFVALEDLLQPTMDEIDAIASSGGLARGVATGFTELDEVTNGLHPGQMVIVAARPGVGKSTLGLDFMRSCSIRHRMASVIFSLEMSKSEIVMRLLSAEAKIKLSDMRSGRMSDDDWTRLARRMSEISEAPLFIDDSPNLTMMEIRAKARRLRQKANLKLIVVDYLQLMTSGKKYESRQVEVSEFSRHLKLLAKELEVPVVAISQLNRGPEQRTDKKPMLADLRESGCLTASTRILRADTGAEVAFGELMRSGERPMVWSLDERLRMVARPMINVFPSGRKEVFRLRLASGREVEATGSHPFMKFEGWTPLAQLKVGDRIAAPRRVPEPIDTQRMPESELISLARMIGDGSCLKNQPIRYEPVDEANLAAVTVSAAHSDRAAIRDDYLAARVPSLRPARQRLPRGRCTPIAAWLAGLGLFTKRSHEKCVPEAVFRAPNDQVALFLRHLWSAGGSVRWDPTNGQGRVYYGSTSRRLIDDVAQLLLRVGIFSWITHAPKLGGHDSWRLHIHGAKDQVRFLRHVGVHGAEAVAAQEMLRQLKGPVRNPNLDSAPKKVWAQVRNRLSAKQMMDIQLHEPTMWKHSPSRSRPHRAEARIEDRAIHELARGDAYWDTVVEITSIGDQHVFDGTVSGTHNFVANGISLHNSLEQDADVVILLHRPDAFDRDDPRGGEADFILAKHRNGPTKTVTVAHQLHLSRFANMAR

cells = assay type: functional
Cytochrome P450 2D6 = Cytochrome P450 2D6 (Homo sapiens, UniProt P10635);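 note: CYP2D6 member of a cytochrome P450 panel assay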
Cytochrome P450 1A2 = target: T6, Cytochrome P450 1A2 (Homo sapiens, UniProt P05177);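 note: PubChem cytochrome P450 panel assay, CYP1A2 panel member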
T6 sequence (P05177 whole entry): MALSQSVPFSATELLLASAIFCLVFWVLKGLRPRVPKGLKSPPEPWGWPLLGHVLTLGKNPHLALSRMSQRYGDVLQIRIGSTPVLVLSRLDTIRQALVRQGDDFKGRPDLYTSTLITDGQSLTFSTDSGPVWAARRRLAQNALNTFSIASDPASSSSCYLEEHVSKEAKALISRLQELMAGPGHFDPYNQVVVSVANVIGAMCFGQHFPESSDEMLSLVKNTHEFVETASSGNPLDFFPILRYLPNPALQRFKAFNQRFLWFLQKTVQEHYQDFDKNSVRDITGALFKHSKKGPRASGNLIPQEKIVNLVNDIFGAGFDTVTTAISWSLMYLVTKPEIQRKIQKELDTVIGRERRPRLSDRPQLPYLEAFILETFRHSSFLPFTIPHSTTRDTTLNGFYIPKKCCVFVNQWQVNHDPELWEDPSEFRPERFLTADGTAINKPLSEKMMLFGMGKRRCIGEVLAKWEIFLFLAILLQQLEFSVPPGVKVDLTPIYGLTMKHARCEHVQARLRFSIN

Cytochrome P450 2C19 = Cytochrome P450 2C19 (Homo sapiens, UniProt P33261); assay: Cytochrome panel assay with activity outcomes. Panel member name: p450-cyp2c19 Compounds with AC50 equal or less than 10 uM are considered active; assay type: functional; conditions: read-out: AC50
Cytochrome P450 2C19, sequence (P33261 whole entry): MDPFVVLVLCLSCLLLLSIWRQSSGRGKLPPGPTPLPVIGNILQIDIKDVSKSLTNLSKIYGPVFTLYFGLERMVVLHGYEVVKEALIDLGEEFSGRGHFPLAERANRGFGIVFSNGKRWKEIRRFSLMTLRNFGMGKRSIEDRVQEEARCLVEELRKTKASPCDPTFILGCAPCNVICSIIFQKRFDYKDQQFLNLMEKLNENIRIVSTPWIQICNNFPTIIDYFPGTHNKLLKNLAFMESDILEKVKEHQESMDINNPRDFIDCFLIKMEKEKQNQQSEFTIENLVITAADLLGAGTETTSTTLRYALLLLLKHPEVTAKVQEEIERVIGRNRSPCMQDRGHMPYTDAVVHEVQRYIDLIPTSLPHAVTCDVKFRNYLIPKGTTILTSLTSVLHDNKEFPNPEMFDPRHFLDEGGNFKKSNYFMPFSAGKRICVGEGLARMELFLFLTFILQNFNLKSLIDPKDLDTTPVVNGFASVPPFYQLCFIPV

Cytochrome P450 2D6, sequence (P10635 whole entry): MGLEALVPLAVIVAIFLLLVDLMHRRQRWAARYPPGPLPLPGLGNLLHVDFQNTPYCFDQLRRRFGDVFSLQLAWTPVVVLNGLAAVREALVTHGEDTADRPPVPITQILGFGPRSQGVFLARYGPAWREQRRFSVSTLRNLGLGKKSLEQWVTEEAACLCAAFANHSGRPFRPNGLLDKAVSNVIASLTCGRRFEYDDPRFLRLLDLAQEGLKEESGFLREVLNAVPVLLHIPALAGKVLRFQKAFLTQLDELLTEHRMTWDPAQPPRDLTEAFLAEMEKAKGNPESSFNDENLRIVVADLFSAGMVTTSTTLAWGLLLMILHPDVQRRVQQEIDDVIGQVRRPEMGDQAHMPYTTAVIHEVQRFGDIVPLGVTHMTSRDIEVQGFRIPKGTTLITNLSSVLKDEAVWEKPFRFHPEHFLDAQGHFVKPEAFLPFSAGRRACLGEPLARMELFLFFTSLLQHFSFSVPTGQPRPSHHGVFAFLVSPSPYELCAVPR

Compound	EC50 [1]	EC50 [2]	EC50 (Protein RecA)	other results
CCOC(=O)N1CCN(C(=O)c2ccc3c(c2)NC(=O)/C(=C\c2ccc(OC)c(OC)c2)S3)CC1	> 300 µM (inconclusive)	> 300 µM (not active)		EC50 [3]: 0.875 µM (active); EC50 (Streptococcus): 5.67 µM (active)
O=C(O)c1cc(-n2cccc2)ccc1N1CCOCC1	74.3 µM (active)	> 300 µM (not active)		
NC(=O)c1ccsc1N	10.1 µM (inconclusive)	10.9 µM (active)		
COc1ccc2[nH]c(SCC(=O)Nc3nonc3C)nc2c1	20.7 µM (inconclusive)	18.4 µM (active)		
Cc1cccc(N(C)S(=O)(=O)c2nnc(NC(=O)c3ccco3)s2)c1	> 300 µM (not active)	> 300 µM (not active)		
Cc1c(N(C)C)nc2ccccc2c1N				IC50 [4]: 102 µM (active)
O=C(NNC(=O)c1ccccc1[N+](=O)[O-])c1cnccn1	1.25 µM (active)	76.5 µM (active)		
CC(C)CS(=O)(=O)C1=NN2C(=N)/C(=C\c3ccc(OC(=O)c4ccco4)cc3)C(=O)N=C2S1			14.4 µM (active)	
C=CCn1c(-c2cccnc2Cl)nc2ccccc21			> 380 µM (inactive)	AC50 [5]: > 380 µM (inactive)
CCOC(=O)c1c(NC(=O)/C=C/C(=O)O)sc(C)c1-c1ccc(F)cc1			6.23 µM (active)	AC50 [5]: 14.3 µM (active)
CC(C)(C)NC(=O)C(c1ccc(Cl)cc1)N(Cc1ccco1)C(=O)CCl (stereo unspecified)			1.97 µM (active)	AC50 [5]: 24.1 µM (active)
Cn1c(SCC(=O)NCc2ccc(F)cc2)nc2ccccc21			> 380 µM (inactive)	AC50 [5]: 124 µM (active)
O=C(Oc1ccc(Br)cc1C(=S)N1CCOCC1)c1cccc([N+](=O)[O-])c1			23.1 µM (active)	AC50 [5]: 18.2 µM (active)
O=C(/C=C/c1c(Cl)cccc1Cl)N1CCOCC1	> 300 µM (not active)	> 300 µM (not active)		
COc1ccc(CCNC(=O)CNCC(c2ccccc2)N(C)C)cc1OC (stereo unspecified)				IC50 [4]: 78.4 µM (active)
OCCN1CCN(CC(O)COC(c2ccc(F)cc2)c2ccc(F)cc2)CC1 (stereo unspecified)				IC50 [4]: 121 µM (active)
Cc1ccccc1N=Nc1c(O)n(C)c2ccccc12	> 300 µM (not active)	> 300 µM (not active)		
CN1C(=O)C(=C2CC(c3ccccc3)N(C(=O)CCl)N2)C(=O)N(C)C1=O (stereo unspecified)			0.351 µM (active)	AC50 [5]: 2.05 µM (active)
C=CCNC(=S)Nc1ccc(OC(=O)Nc2ccc(Cl)c(Cl)c2)cc1				IC50 [4]: 89 µM (active)
CC(C)CC1C(C#N)=C(N)Oc2[nH]nc(-c3cccs3)c21 (stereo unspecified)			58.1 µM (active)	AC50 [5]: 48.8 µM (active)
COC(=O)c1ccc(-n2c(C)ccc2-c2ccccc2)cc1	> 300 µM (not active)	> 300 µM (not active)		
CC(=O)Nc1ccc(OC(=O)c2ccc(Br)c([N+](=O)[O-])c2)cc1				IC50 [4]: 36.4 µM (active); IC50 (cells): 10.1 µM (active)
CC1=NNC(=O)C1Cc1c(Cl)cccc1Cl (stereo unspecified)			0.642 µM (active)	AC50 [5]: 1.39 µM (active)
COc1cc(C=NNC(=O)c2ccccc2-n2cccc2)ccc1O				IC50 [4]: 32.7 µM (active)
Oc1ccc(CCc2ccccn2)cc1				IC50 [4]: 40 µM (active)
C=CCSc1nnc2c(n1)OC(c1c(C)[nH]n(-c3ccccc3)c1=O)Nc1ccccc1-2 (stereo unspecified)				AC50 (Cytochrome P450 2D6): 0.158 µM (inconclusive); AC50 (Cytochrome P450 1A2): 15.8 µM (inconclusive); AC50 (Cytochrome P450 2C19): 8.91 µM (inconclusive)
Oc1ccc(/C=N/Nc2ncc(Cl)cc2Cl)cc1				IC50 [4]: 32.3 µM (active)
Oc1cccc(/C=N/N=C/c2cccc(O)c2O)c1O	24.6 µM (active)	42.9 µM (active)		
